Residues, ends and D or L forms follow the SMILES beside them. *: point of attachment. Cbz = O=C(OCc1ccccc1)*
Tests used:
[1] = test system: HA-DISC1, HEK293 cells; assay: HA-DISC1 protein level in transfected HEK293 cells; assay type: cell-based, human; conditions: MG132 10 μM, Figure 1c, n=3
Description: (§1) HEK293 cells were sourced from ATCC (CRL-1573) and cultured as described in the manufacturer’s protocol. DMEM (SIGMA) supplemented with 10% fetal bovine serum, 2 mM L-glutamine, […] penicillin-streptomycin at 37 °C in a humidified atmosphere of 5% CO2. The cells were passaged at about 80% confluency. Cells were transfected with plasmid DNA using polyfect transfection reagent (Qiagen) according to the manufacturer’s instructions. HEK293 cells were treated with the pharmacological agents cycloheximide (C7698) and MG132 (M7449) (Sigma-Aldrich) or DISC1 disruptor peptides (custom synthesized by Severn Biotech) as described in the text.
(§2) Briefly, detergent-soluble proteins were isolated from cells by disruption in lysis buffer 20 mM Tris-HCl (pH 7.5), 150 mM NaCl, 1 mM Na2EDTA, 1 mM EGTA, 1% triton, 2.5 mM sodium pyrophosphate, 1 mM β-glycerophosphate, 1 mM Na3VO4, 1 μg ml^–1 leupeptin, 10 mM DTT with Roche protease inhibitor, phosSTOP (Roche, 04906837001). Detergent-insoluble proteins were removed by centrifugation at 10 000 g for 10 min, and the soluble fraction was retained. Cell lysates were adjusted to equal protein amount (1 μg μl^–1) using cell lysis buffer. Cell lysates normalized for the protein concentration were incubated with mouse IgG (Millipore, 12487) Protein A agarose beads for 2 h at 4 °C. […] The complexes were analyzed on SDS PAGE. […]

[2] = test system: DISC1, HEK293 cells; assay: Endogenous DISC1 protein level in HEK293 cells, western blot; assay type: cell-based, human; conditions: MG132 10–60 μM, 1 h, Figure 1b
Description: as §1, §2

## CC(C)C[C@@H](C=O)NC(=O)[C@H](CC(C)C)NC(=O)[C@H](CC(C)C)NC(=O)OCc1ccccc1 [MG132] (Cbz-Leu-Leu-Leu-aldehyde)
[1]
  HA-DISC1 protein expression after MG132: transiently increased
[2]
  endogenous DISC1 level after MG132: elevated
